This note sets out measurements from PMC5218480 (PLoS ONE, 2017).

Molecules are shown by their SMILES.

In the assay the test system is MV-4-11 cells. Nature of the assay: Gene expression microarray analysis (Affymetrix PrimeView) and GSEA. Format: cell-based, human. Also noted: RFU PODN (11730768_x_at) / Fold change /veh PODN (11730768_x_at) / RFU LINC00158 (11744669_a_at) / Fold change /veh LINC00158 (11744669_a_at) / RFU DUSP10 (11751237_a_at) / Fold change /veh DUSP10 (11751237_a_at) / RFU ID3 (11757404_x_at) / Fold change /veh ID3 (11757404_x_at) / RFU PLEKHG5 (11737974_s_at) / Fold change /veh PLEKHG5 (11737974_s_at) / RFU LRRC4B (11730491_at) / Fold change /veh LRRC4B (11730491_at) / RFU GIMAP4 (11747438_a_at) / Fold change /veh GIMAP4 (11747438_a_at) / RFU KRT8 (11758183_x_at) / Fold change /veh KRT8 (11758183_x_at) / RFU CNN1 (11734310_a_at) / Fold change /veh CNN1 (11734310_a_at) / RFU VPS37D (11726825_at) / Fold change /veh VPS37D (11726825_at) / RFU C10orf10 (11716522_x_at) / Fold change /veh C10orf10 (11716522_x_at) / RFU KIR2DL2 /// KIR2DL4 /// KIR2DL5A /// KIR2DL5B /// KIR2DS1 /// KIR2DS2 /// KIR2DS3 /// KIR2DS4 /// KIR3DL3 /// KIR3DL3 /// KIR3DS1 (11738374_at) / Fold change /veh KIR2DL2 /// KIR2DL4 /// KIR2DL5A /// KIR2DL5B /// KIR2DS1 /// KIR2DS2 /// KIR2DS3 /// KIR2DS4 /// KIR3DL3 /// KIR3DL3 /// KIR3DS1 (11738374_at) / RFU C1QL1 (11718748_at) / Fold change /veh C1QL1 (11718748_at) / RFU TMPRSS4 (11747572_a_at) / Fold change /veh TMPRSS4 (11747572_a_at) / RFU HAMP (11756126_x_at) / Fold change /veh HAMP (11756126_x_at) / RFU RNFT2 (11725882_a_at) / Fold change /veh RNFT2 (11725882_a_at) / RFU NR4A2 (11747474_a_at) / Fold change /veh NR4A2 (11747474_a_at) / RFU ABCC12 (11746883_a_at) / Fold change /veh ABCC12 (11746883_a_at) / RFU TMEM136 (11760407_x_at) / Fold change /veh TMEM136 (11760407_x_at) / RFU CLDN22 /// WWC2 (11732394_at) / Fold change /veh CLDN22 /// WWC2 (11732394_at) / RFU HLA-DPB1 (11760878_x_at) / Fold change /veh HLA-DPB1 (11760878_x_at) / RFU SPINT1 (11716480_a_at) / Fold change /veh SPINT1 (11716480_a_at) / RFU GAP43 (11754022_s_at) / Fold change /veh GAP43 (11754022_s_at) / RFU A4GNT (11735810_at) / Fold change /veh A4GNT (11735810_at) / RFU PRB3 (11715151_x_at) / Fold change /veh PRB3 (11715151_x_at) / RFU TUBB4B (11761932_at) / Fold change /veh TUBB4B (11761932_at) / RFU CAPN14 (11732068_a_at) / Fold change /veh CAPN14 (11732068_a_at) / RFU TMCC2 (11721928_a_at) / Fold change /veh TMCC2 (11721928_a_at) / RFU IRGQ (11745062_a_at) / Fold change /veh IRGQ (11745062_a_at) / RFU FAM174B (11720279_a_at) / Fold change /veh FAM174B (11720279_a_at) / RFU TMPRSS4 (11748680_a_at) / Fold change /veh TMPRSS4 (11748680_a_at) / RFU FAM212B (11763350_a_at) / Fold change /veh FAM212B (11763350_a_at) / RFU PLEKHG5 (11743358_a_at) / Fold change /veh PLEKHG5 (11743358_a_at) / RFU ZSCAN30 (11745921_a_at) / Fold change /veh ZSCAN30 (11745921_a_at) / RFU CMKLR1 (11741424_a_at) / Fold change /veh CMKLR1 (11741424_a_at) / RFU LOC101060620 /// MAPK8IP1 (11723275_at) / Fold change /veh LOC101060620 /// MAPK8IP1 (11723275_at) / RFU SPTSSB (11747773_x_at) / Fold change /veh SPTSSB (11747773_x_at) / RFU PRSS12 (11739890_at) / Fold change /veh PRSS12 (11739890_at) / RFU BIN1 (11741810_x_at) / Fold change /veh BIN1 (11741810_x_at) / RFU WNT11 (11732464_a_at) / Fold change /veh WNT11 (11732464_a_at) / RFU C10orf10 (11716521_a_at) / Fold change /veh C10orf10 (11716521_a_at) / RFU C5orf56 (11738089_at) / Fold change /veh C5orf56 (11738089_at) / RFU CYB561 (11721691_x_at) / Fold change /veh CYB561 (11721691_x_at) / RFU ANKRD19P (11752326_a_at) / Fold change /veh ANKRD19P (11752326_a_at) / RFU OR2T12 /// OR2T33 /// OR2T8 (11738714_s_at) / Fold change /veh OR2T12 /// OR2T33 /// OR2T8 (11738714_s_at) / RFU VCAN (11748164_a_at) / Fold change /veh VCAN (11748164_a_at) / RFU JSRP1 (11732532_at) / Fold change /veh JSRP1 (11732532_at) / RFU KRTAP10-11 (11738290_x_at) / Fold change /veh KRTAP10-11 (11738290_x_at) / RFU MYO3A (11730013_a_at) / Fold change /veh MYO3A (11730013_a_at) / RFU EBF3 (11725865_a_at) / Fold change /veh EBF3 (11725865_a_at) / RFU CAMK2N1 (11719241_x_at) / Fold change /veh CAMK2N1 (11719241_x_at) / RFU C5orf56 (11738088_a_at) / Fold change /veh C5orf56 (11738088_a_at) / RFU OLFML3 (11715873_a_at) / Fold change /veh OLFML3 (11715873_a_at) / RFU LOC100653217 /// NTM (11731650_a_at) / Fold change /veh LOC100653217 /// NTM (11731650_a_at) / RFU MAPK11 (11762145_a_at) / Fold change /veh MAPK11 (11762145_a_at) / RFU FIZ1 (11724087_x_at) / Fold change /veh FIZ1 (11724087_x_at) / RFU OASL (11726364_x_at) / Fold change /veh OASL (11726364_x_at) / RFU SOX15 (11748057_x_at) / Fold change /veh SOX15 (11748057_x_at) / RFU CD79A (11719716_a_at) / Fold change /veh CD79A (11719716_a_at) / RFU HIST1H1D (11736915_at) / Fold change /veh HIST1H1D (11736915_at) / RFU CASKIN2 (11723855_a_at) / Fold change /veh CASKIN2 (11723855_a_at) / RFU LOC730098 (11760151_x_at) / Fold change /veh LOC730098 (11760151_x_at) / RFU OR4N2 (11742367_at) / Fold change /veh OR4N2 (11742367_at) / RFU PRRT2 (11749266_a_at) / Fold change /veh PRRT2 (11749266_a_at) / RFU SNX32 (11753110_a_at) / Fold change /veh SNX32 (11753110_a_at) / RFU CDHR5 (11726645_a_at) / Fold change /veh CDHR5 (11726645_a_at) / RFU RCAN1 (11760418_a_at) / Fold change /veh RCAN1 (11760418_a_at) / RFU FAM167A (11723789_a_at) / Fold change /veh FAM167A (11723789_a_at) / RFU FAM26E (11764081_at) / Fold change /veh FAM26E (11764081_at) / RFU ISYNA1 (11749810_s_at) / Fold change /veh ISYNA1 (11749810_s_at) / RFU ACY1 (11761880_at) / Fold change /veh ACY1 (11761880_at) / RFU 11764098_at / Fold change /veh 11764098_at / RFU SAMD14 (11745864_x_at) / Fold change /veh SAMD14 (11745864_x_at) / RFU NPB (11741838_a_at) / Fold change /veh NPB (11741838_a_at) / RFU TMPRSS6 (11731388_a_at) / Fold change /veh TMPRSS6 (11731388_a_at) / RFU KRTAP10-2 (11738614_at) / Fold change /veh KRTAP10-2 (11738614_at) / RFU ARHGAP8 /// PRR5-ARHGAP8 (11727945_x_at) / Fold change /veh ARHGAP8 /// PRR5-ARHGAP8 (11727945_x_at) / RFU KRTAP5-7 /// NADSYN1 (11734609_at) / Fold change /veh KRTAP5-7 /// NADSYN1 (11734609_at) / RFU RASL12 (11751679_a_at) / Fold change /veh RASL12 (11751679_a_at) / RFU CDKN2B (11736163_a_at) / Fold change /veh CDKN2B (11736163_a_at) / RFU PRF1 (11729649_at) / Fold change /veh PRF1 (11729649_at) / RFU, ZNF638 /// ZNF638-IT1 / Fold change vs veh, ZNF638 /// ZNF638-IT1 / RFU, PANK3 / Fold change vs veh, PANK3 / RFU, SH3YL1 / Fold change vs veh, SH3YL1 / RFU, ZEB2 / Fold change vs veh, ZEB2 / RFU, NRIP1 / Fold change vs veh, NRIP1 / RFU, PTTG1IP / Fold change vs veh, PTTG1IP / RFU, CAPN2 / Fold change vs veh, CAPN2 / RFU, MED14 / Fold change vs veh, MED14 / RFU, SNORA58 / Fold change vs veh, SNORA58 / RFU, C1orf63 / Fold change vs veh, C1orf63 / RFU, LRRFIP1 / Fold change vs veh, LRRFIP1 / RFU, NDUFAF7 / Fold change vs veh, NDUFAF7 / RFU, SLC12A2 / Fold change vs veh, SLC12A2 / RFU, IBTK / Fold change vs veh, IBTK / RFU, ESF1 / Fold change vs veh, ESF1 / Fold change vs veh, TMEM50B / RFU, TAOK1 / Fold change vs veh, TAOK1 / RFU, ACBD3 / Fold change vs veh, ACBD3 / RFU, TMA16 / Fold change vs veh, TMA16 / RFU, RWDD3 / Fold change vs veh, RWDD3 / RFU, BCAT1 / Fold change vs veh, BCAT1 / RFU, EDEM3 / Fold change vs veh, EDEM3 / RFU, TMEM33 / Fold change vs veh, TMEM33 / RFU, WDR75 / Fold change vs veh, WDR75 / RFU, AHCTF1 / Fold change vs veh, AHCTF1 / RFU, TFRC / Fold change vs veh, TFRC / RFU, ZDHHC17 / Fold change vs veh, ZDHHC17 / RFU, NOM1 / Fold change vs veh, NOM1 / RFU, ARL8B / Fold change vs veh, ARL8B / RFU, ZBTB11 / Fold change vs veh, ZBTB11 / RFU, TAMM41 / Fold change vs veh, TAMM41 / RFU, KIAA1704 /// LOC100996395 / Fold change vs veh, KIAA1704 /// LOC100996395 / RFU, ING1 / Fold change vs veh, ING1 / RFU, TRMT61B / Fold change vs veh, TRMT61B / RFU, FUBP3 / Fold change vs veh, FUBP3 / RFU, TP53 / Fold change vs veh, TP53 / RFU, TNKS2 / Fold change vs veh, TNKS2 / RFU, ZFP14 / Fold change vs veh, ZFP14 / RFU, ACTR2 / Fold change vs veh, ACTR2 / RFU, PPP3R1 / Fold change vs veh, PPP3R1 / RFU, PIK3R1 / Fold change vs veh, PIK3R1 / RFU, HNRNPA1 / Fold change vs veh, HNRNPA1 / RFU, RNF170 / Fold change vs veh, RNF170 / RFU, ZNF28 / Fold change vs veh, ZNF28 / RFU, RNGTT / Fold change vs veh, RNGTT / RFU, OGT / Fold change vs veh, OGT / RFU, BRD1 / Fold change vs veh, BRD1 / RFU, MARS / Fold change vs veh, MARS / RFU, ZNF655 / Fold change vs veh, ZNF655 / RFU, FAHD1 / Fold change vs veh, FAHD1 / RFU, BDP1 / Fold change vs veh, BDP1 / RFU, LRRCC1 / Fold change vs veh, LRRCC1 / RFU, ARID1A / Fold change vs veh, ARID1A / RFU, ZNF146 / Fold change vs veh, ZNF146 / RFU, ZNF330 / Fold change vs veh, ZNF330 / RFU, GPN3 / Fold change vs veh, GPN3 / RFU, C9orf123 / Fold change vs veh, C9orf123 / RFU, N4BP2L2 / Fold change vs veh, N4BP2L2 / RFU, ARFIP1 / Fold change vs veh, ARFIP1 / RFU, FAM179B / Fold change vs veh, FAM179B / RFU, BCL10 / Fold change vs veh, BCL10 / RFU, UHRF1BP1L / Fold change vs veh, UHRF1BP1L / RFU, BET1 / Fold change vs veh, BET1 / RFU, CNOT2 / Fold change vs veh, CNOT2 / RFU, ZNF268 / Fold change vs veh, ZNF268 / Fold change vs veh, ZNF507 / RFU, DGCR2 / Fold change vs veh, DGCR2 / RFU, WDSUB1 / Fold change vs veh, WDSUB1 / Fold change vs veh, HSP90B1 /// MIR3652 / RFU, ADSS / Fold change vs veh, ADSS / RFU, GK / Fold change vs veh, GK / RFU, ZNF148 / Fold change vs veh, ZNF148 / RFU, TAF9 / Fold change vs veh, TAF9 / RFU, SLC1A5 / Fold change vs veh, SLC1A5 / RFU, SLMO2 / Fold change vs veh, SLMO2 / RFU, ABCC4 / Fold change vs veh, ABCC4 / RFU, LOC101060439 /// RAP1B / Fold change vs veh, LOC101060439 /// RAP1B / RFU, RFX7 / Fold change vs veh, RFX7 / RFU, GTPBP10 / Fold change vs veh, GTPBP10 / RFU, CNEP1R1 / Fold change vs veh, CNEP1R1 / RFU, BIVM-ERCC5 /// ERCC5 / Fold change vs veh, BIVM-ERCC5 /// ERCC5 / RFU, ILF3 / Fold change vs veh, ILF3 / RFU 11762660_at / Fold change /veh 11762660_at / RFU VCAN (11757783_s_at) / Fold change /veh VCAN (11757783_s_at) / RFU DDX43 (11728927_at) / Fold change /veh DDX43 (11728927_at) / RFU KRT8 (11758188_x_at) / Fold change /veh KRT8 (11758188_x_at) / RFU NKD1 (11759106_at) / Fold change /veh NKD1 (11759106_at) / RFU SRD5A1 (11742802_a_at) / Fold change /veh SRD5A1 (11742802_a_at) / RFU TPSAB1 /// TPSB2 (11721975_s_at) / Fold change /veh TPSAB1 /// TPSB2 (11721975_s_at) / RFU GSTM3 (11746129_a_at) / Fold change /veh GSTM3 (11746129_a_at) / RFU IL23R (11737362_x_at) / Fold change /veh IL23R (11737362_x_at) / RFU TMEM51 (11727254_a_at) / Fold change /veh TMEM51 (11727254_a_at) / RFU PIWIL2 (11732686_x_at) / Fold change /veh PIWIL2 (11732686_x_at) / RFU ORM1 (11744905_x_at) / Fold change /veh ORM1 (11744905_x_at) / RFU CCDC152 (11743942_at) / Fold change /veh CCDC152 (11743942_at) / RFU ECM1 (11717891_a_at) / Fold change /veh ECM1 (11717891_a_at) / RFU IL23R (11748794_a_at) / Fold change /veh IL23R (11748794_a_at) / RFU TNFAIP8L3 (11732012_x_at) / Fold change /veh TNFAIP8L3 (11732012_x_at) / RFU MBOAT4 (11741988_at) / Fold change /veh MBOAT4 (11741988_at) / RFU 11764193_at / Fold change /veh 11764193_at / RFU TMEM53 (11763286_at) / Fold change /veh TMEM53 (11763286_at) / RFU MAGEB2 (11727129_at) / Fold change /veh MAGEB2 (11727129_at) / RFU TMEM200A (11744735_a_at) / Fold change /veh TMEM200A (11744735_a_at) / RFU CCDC152 (11751479_a_at) / Fold change /veh CCDC152 (11751479_a_at) / RFU FAM211A (11726209_a_at) / Fold change /veh FAM211A (11726209_a_at) / RFU RGS16 (11746705_a_at) / Fold change /veh RGS16 (11746705_a_at) / RFU VCAN (11755009_s_at) / Fold change /veh VCAN (11755009_s_at) / RFU RHOB (11743442_s_at) / Fold change /veh RHOB (11743442_s_at) / RFU RGS16 (11720943_a_at) / Fold change /veh RGS16 (11720943_a_at) / RFU RGS16 (11720944_at) / Fold change /veh RGS16 (11720944_at) / RFU, VPS4B / Fold change vs veh, VPS4B / RFU, CREB1 / Fold change vs veh, CREB1 / RFU, DNAJC13 / Fold change vs veh, DNAJC13 / RFU, GNAQ / Fold change vs veh, GNAQ / RFU, CDK5R1 / Fold change vs veh, CDK5R1 / RFU, ZRANB3 / Fold change vs veh, ZRANB3 / RFU, CUL4A / Fold change vs veh, CUL4A / RFU, CCNY / Fold change vs veh, CCNY / RFU, UFL1 / Fold change vs veh, UFL1 / RFU, COG3 / Fold change vs veh, COG3 / RFU, DIAPH2 / Fold change vs veh, DIAPH2 / RFU, SKA2 / Fold change vs veh, SKA2 / RFU, AFF3 / Fold change vs veh, AFF3 / RFU, LMF1 / Fold change vs veh, LMF1 / RFU, IPO11 / Fold change vs veh, IPO11 / RFU, DFFB / Fold change vs veh, DFFB / RFU, FOXP1 / Fold change vs veh, FOXP1 / RFU, CARD8 / Fold change vs veh, CARD8 / RFU, STRN3 / Fold change vs veh, STRN3 / RFU, ADK / Fold change vs veh, ADK / RFU, RASSF2 / Fold change vs veh, RASSF2 / RFU, WIPF1 / Fold change vs veh, WIPF1 / RFU, LARP1B / Fold change vs veh, LARP1B / RFU, RASA1 / Fold change vs veh, RASA1 / RFU, RB1 / Fold change vs veh, RB1 / RFU, PPFIA1 / Fold change vs veh, PPFIA1 / RFU, MAT2A / Fold change vs veh, MAT2A / RFU, CCT5 / Fold change vs veh, CCT5 / RFU, WDR92 / Fold change vs veh, WDR92 / RFU, CUX1 / Fold change vs veh, CUX1 / RFU, TTC7A / Fold change vs veh, TTC7A / RFU, TMEM135 / Fold change vs veh, TMEM135 / RFU, DEPTOR / Fold change vs veh, DEPTOR / RFU, CPM / Fold change vs veh, CPM / RFU, DNAJB6 / Fold change vs veh, DNAJB6 / RFU, CACNA2D3 / Fold change vs veh, CACNA2D3 / RFU, DTX4 / Fold change vs veh, DTX4 / RFU, TFCP2 / Fold change vs veh, TFCP2 / RFU, GMCL1 /// GMCL1P1 / Fold change vs veh, GMCL1 /// GMCL1P1 / RFU, AEBP2 / Fold change vs veh, AEBP2 / RFU, SNHG1 /// SNORD22 /// SNORD25 /// SNORD26 /// SNORD27 /// SNORD28 /// SNORD29 /// SNORD31 / Fold change vs veh, SNHG1 /// SNORD22 /// SNORD25 /// SNORD26 /// SNORD27 /// SNORD28 /// SNORD29 /// SNORD31 / Fold change (Aza/veh), C12orf56 (ProbeSet 11735607_a_at) / Fold change (ACY-1035/veh), C12orf56 (ProbeSet 11735607_a_at) / Fold change (Aza/veh), FGFR1OP (ProbeSet 11751329_s_at) / Fold change (ACY-1035/veh), FGFR1OP (ProbeSet 11751329_s_at) / Fold change (Aza/veh), VPS36 (ProbeSet 11739960_a_at) / Fold change (ACY-1035/veh), VPS36 (ProbeSet 11739960_a_at) / RFU SYPL1 (11715823_x_at) / Fold change /veh SYPL1 (11715823_x_at) / RFU IGFBP7 (11715501_s_at) / Fold change /veh IGFBP7 (11715501_s_at) / RFU REEP3 (11722064_at) / Fold change /veh REEP3 (11722064_at) / RFU IGLL1 (11728026_x_at) / Fold change /veh IGLL1 (11728026_x_at): dose or concentration left out as unconfirmed. The settings on record: ProbeSet 11724526_at; LIST B.

For the compound `Nc1ncn([C@@H]2O[C@H](CO)[C@@H](O)[C@H]2O)c(=O)n1` [azacitidine], the “Fold change vs veh, FAHD1” value is 0.84.
